Laboratory results as given in patent publication US20250017213A1, “COMPOSITION FOR MODULATING MICROBIAL GROWTH” (DSM AUSTRIA GMBH, priority 2021, published 2025).

System: Lactobacillus reuteri F 275 (DSMZ 20016)
Test: microbe, parasite or virus in culture
Settings: Limosilactobacillus reuteri

## O=CO [formic, formic acid]
DSMZ20016, NCI-H125, 4 h
  inhibition at […]: 23.4%
DSMZ20016, NCI-H125, 5 h
  inhibition at […]: 38.2%
DSMZ20016, NCI-H125, 6 h
  inhibition at […]: 39.8%
DSMZ20016, NCI-H125, 7 h
  inhibition at […]: 39.7%
DSMZ20016, NCI-H125, 10 h
  inhibition at […]: 39.5%
